In patent US11427606B2, “Azithromycin derivatives containing a phosphonium ion as anticancer agents” (Rising Tide Foundation, priority 2017, dated 2022):

Test system: MDA-231 cancer cells
Assay: Inhibition of proliferation assay: cell confluence (IncuCyte imaging)
Assay type: cell-based
Details: compound at 10 uM; MDA-231 cells; IncuCyte images every 3 h over 4-5 d; relative confluence normalised to time zero
From the text: Inhibition of Proliferation Assay
The confluence value is a surrogate for cell proliferation and growth. The value is expressed as a percent confluence, which represents the fraction of culture dish-surface that is occupied by cells. As the number of cells in the dish increases over time due to proliferation, so will their coverage of that surface increase. Expansion of the cell population on the cell culture-dish surface and confluence have mostly a linear relationship until the cells on the plate surface begin to reach saturation or maximum density.
Confluence is determined based on image analysis. Image based software can identify objects in the image field base on changes to pixel density in a grey scale image. The software can then assign a mask to those pixels within the object. Objects can be ‘gated’ out based on size and shape. To determine cell confluence, images of cells are first masked as objects. The surface area of the image that is masked is measured and compared to the total surface area of the culture dish surface to obtain a percent confluence.
MDA-231 cancer cells were obtained from ATCC. Cells were cultured in Dulbecco's Modified Eagle Medium (DMEM) supplemented with 10% Fetal Bovine Serum (FBS), 2 mM Glutamax, 1 mM Non Essential Amino Acid (NEAA) solution and 1 mM sodium pyruvate. […] Final DMSO concentrations were […]. Images were acquired with an IncuCyte Live Cell Imaging microscopy (Essen Bioscience) at every 3 h under cell culture conditions with 10× objective over 4-5 d. Cell confluence was calculated from one field of view per well using the IncuCyte in-built algorithm. Relative confluence values were obtained by normalising each value to the time zero value in each sample.

Row | SMILES | % Confluence [%]
1 | CC[C@H]1OC(=O)[C@H](C)[C@@H](O[C@H]2C[C@@](C)(OC)[C@@H](O)[C@H](C)O2)[C@H](C)[C@@H](O[C@@H]2O[C@H](C)C[C@H](N(C)C)[C@H]2O)[C@](C)(O)C[C@@H](C)CN(C(=O)CCCCCCC[P+](c2ccccc2)(c2ccccc2)c2ccccc2-c2ccccc2)[C@H](C)[C@@H](O)[C@]1(C)O [Example 18, {[1,1′-biphenyl]-2-yl}({8-[(2R,3S,4R,5R,8R,10R,11R,12S,13S,14R)-11-{[(2S,3R,4S,6R)-4-(dimethylamino)-3-hydroxy-6-methyloxan-2-yl]oxy}-2-ethyl-3,4,10-trihydroxy-13-{[(2R,4R,5S,6S)-5-hydroxy-4-methoxy-4,6-dimethyloxan-2-yl]oxy}-3,5,8,10,12,14-hexamethyl-15-oxo-1-oxa-6-azacyclopentadecan-6-yl]-8-oxooctyl})diphenylphosphonium hexafluorophosphate(V)] | 7.7
2 | CC[C@H]1OC(=O)[C@H](C)[C@@H](O[C@H]2C[C@@](C)(OC)[C@@H](O)[C@H](C)O2)[C@H](C)[C@@H](O[C@@H]2O[C@H](C)C[C@H](N(C)C)[C@H]2O)[C@](C)(O)C[C@@H](C)CN(C(=O)CCCCCCC[P+](c2ccccc2)(c2ccccc2)c2ccc(N(C)C)cc2)[C@H](C)[C@@H](O)[C@]1(C)O [Example 19, {8-[(2R,3S,4R,5R,8R,10R,11R,12S,13S,14R)-11-{[(2S,3R,4S,6R)-4-(dimethylamino)-3-hydroxy-6-methyloxan-2-yl]oxy}-2-ethyl-3,4,10-trihydroxy-13-{[(2R,4R,5S,6S)-5-hydroxy-4-methoxy-4,6-dimethyloxan-2-yl]oxy}-3,5,8,10,12,14-hexamethyl-15-oxo-1-oxa-6-azacyclopentadecan-6-yl]-8-oxooctyl}[4-(dimethylamino)phenyl]diphenylphosphonium hexafluorophosphate(V)] | 10.5
3 | CC[C@H]1OC(=O)[C@H](C)[C@@H](O)[C@H](C)[C@@H](O[C@@H]2O[C@H](C)C[C@H](N(C)C)[C@H]2O)[C@](C)(O)C[C@@H](C)CN(CCCCCCCC[P+](c2ccc(OC)cc2)(c2ccc(OC)cc2)c2ccc(OC)cc2)[C@H](C)[C@@H](O)[C@]1(C)O [Example 20] | 14.8
4 | CC[C@H]1OC(=O)[C@H](C)[C@@H](O)[C@H](C)[C@@H](O[C@@H]2O[C@H](C)C[C@H](N(C)C)[C@H]2O)[C@](C)(O)C[C@@H](C)CN(CCCCCCCC[P+](c2ccccc2)(c2ccccc2)c2ccc(N(C)C)cc2)[C@H](C)[C@@H](O)[C@]1(C)O.[I-] [Example 21] | 89.9
5 | CC[C@H]1OC(=O)[C@H](C)[C@@H](O[C@H]2C[C@@](C)(OC)[C@@H](O)[C@H](C)O2)[C@H](C)[C@@H](O[C@@H]2O[C@H](C)C[C@H](N(C)C)[C@H]2O)[C@](C)(O)C[C@@H](C)CN(C(=O)CCCCCCCCCCC[P+](C)(c2ccccc2)c2ccccc2)[C@H](C)[C@@H](O)[C@]1(C)O.[Cl-] [Example 22, {12-[(2R,3S,4R,5R,8R,10R,11R,12S,13S,14R)-11-{[(2S,3R,4S,6R)-4-(dimethylamino)-3-hydroxy-6-methyloxan-2-yl]oxy}-2-ethyl-3,4,10-trihydroxy-13-{[(2R,4R,5S,6S)-5-hydroxy-4-methoxy-4,6-dimethyloxan-2-yl]oxy}-3,5,8,10,12,14-hexamethyl-15-oxo-1-oxa-6-azacyclopentadecan-6-yl]-12-oxododecyl}(methyl)diphenylphosphonium chloride] | 137
6 | CC[C@H]1OC(=O)[C@H](C)[C@@H](O[C@H]2C[C@@](C)(OC)[C@@H](O)[C@H](C)O2)[C@H](C)[C@@H](O[C@@H]2O[C@H](C)C[C@H](N(C)C)[C@H]2O)[C@](C)(O)C[C@@H](C)CN(C(=O)CCCCCCCCCCC[PH](C)(C)c2ccccc2)[C@H](C)[C@@H](O)[C@]1(C)O [Example 23, {12-[(2R,3S,4R,5R,8R,10R,11R,12S,13S,14R)-11-{[(2S,3R,4S,6R)-4-(dimethylamino)-3-hydroxy-6-methyloxan-2-yl]oxy}-2-ethyl-3,4,10-trihydroxy-13-{[(2R,4R,5S,6S)-5-hydroxy-4-methoxy-4,6-dimethyloxan-2-yl]oxy}-3,5,8,10,12,14-hexamethyl-15-oxo-1-oxa-6-azacyclopentadecan-6-yl]-12-oxododecyl}dimethylphenylphosphonium chloride] | 7.5
7 | CC[C@H]1OC(=O)[C@H](C)[C@@H](O[C@H]2C[C@@](C)(OC)[C@@H](O)[C@H](C)O2)[C@H](C)[C@@H](O[C@@H]2O[C@H](C)C[C@H](N(C)C)[C@H]2O)[C@](C)(O)C[C@@H](C)CN(C(=O)CCCCCCCCCCC[P+](C)(C)C)[C@H](C)[C@@H](O)[C@]1(C)O.[Cl-] [Example 24, {12-[(2R,3S,4R,5R,8R,10R,11R,12S,13S,14R)-11-{[(2S,3R,4S,6R)-4-(dimethylamino)-3-hydroxy-6-methyloxan-2-yl]oxy}-2-ethyl-3,4,10-trihydroxy-13-{[(2R,4R,5S,6S)-5-hydroxy-4-methoxy-4,6-dimethyloxan-2-yl]oxy}-3,5,8,10,12,14-hexamethyl-15-oxo-1-oxa-6-azacyclopentadecan-6-yl]-12-oxododecyl}trimethylphosphonium chloride] | 140
8 | CC[C@H]1OC(=O)[C@H](C)[C@@H](O[C@H]2C[C@@](C)(OC)[C@@H](O)[C@H](C)O2)[C@H](C)[C@@H](O[C@@H]2O[C@H](C)C[C@H](N(C)C)[C@H]2O)[C@](C)(O)C[C@@H](C)CN(C(=O)CCCCCCC[P+](C)(C)C)[C@H](C)[C@@H](O)[C@]1(C)O.[Cl-] [Example 25, {8-[(2R,3S,4R,5R,8R,10R,11R,12S,13S,14R)-11-{[(2S,3R,4S,6R)-4-(dimethylamino)-3-hydroxy-6-methyloxan-2-yl]oxy}-2-ethyl-3,4,10-trihydroxy-13-{[(2R,4R,5S,6S)-5-hydroxy-4-methoxy-4,6-dimethyloxan-2-yl]oxy}-3,5,8,10,12,14-hexamethyl-15-oxo-1-oxa-6-azacyclopentadecan-6-yl]-8-oxooctyl}trimethylphosphonium chloride] | 124
9 | CC[C@H]1OC(=O)[C@H](C)[C@@H](O[C@H]2C[C@@](C)(OC)[C@@H](O)[C@H](C)O2)[C@H](C)[C@@H](O[C@@H]2O[C@H](C)C[C@H](N(C)C)[C@H]2O)[C@](C)(O)C[C@@H](C)CN(C(=O)CCCCCCC[P+](c2ccccc2)(c2ccccc2)c2cnn(C)c2)[C@H](C)[C@@H](O)[C@]1(C)O.[Cl-] [Example 27, {8-[(2R,3S,4R,5R,8R,10R,11R,12S,13S,14R)-11-{[(2S,3R,4S,6R)-4-(dimethylamino)-3-hydroxy-6-methyloxan-2-yl]oxy}-2-ethyl-3,4,10-trihydroxy-13-{[(2R,4R,5S,6S)-5-hydroxy-4-methoxy-4,6-dimethyloxan-2-yl]oxy}-3,5,8,10,12,14-hexamethyl-15-oxo-1-oxa-6-azacyclopentadecan-6-yl]-8-oxooctyl}(1-methyl-1H-pyrazol-4-yl)diphenylphosphonium chloride] | 123
